The record followed here is patent publication US20250195485A1, “PROPIONIC ACID DERIVATIVE AND MEDICAL USE THEREOF” (Xizang Haisco Pharmaceutical Co., Ltd., priority 2021, published 2025).

One series deals with T1, integrin α4β7 (Homo sapiens, UniProt P13612+P26010).
T1 sequence (P13612 34-1032): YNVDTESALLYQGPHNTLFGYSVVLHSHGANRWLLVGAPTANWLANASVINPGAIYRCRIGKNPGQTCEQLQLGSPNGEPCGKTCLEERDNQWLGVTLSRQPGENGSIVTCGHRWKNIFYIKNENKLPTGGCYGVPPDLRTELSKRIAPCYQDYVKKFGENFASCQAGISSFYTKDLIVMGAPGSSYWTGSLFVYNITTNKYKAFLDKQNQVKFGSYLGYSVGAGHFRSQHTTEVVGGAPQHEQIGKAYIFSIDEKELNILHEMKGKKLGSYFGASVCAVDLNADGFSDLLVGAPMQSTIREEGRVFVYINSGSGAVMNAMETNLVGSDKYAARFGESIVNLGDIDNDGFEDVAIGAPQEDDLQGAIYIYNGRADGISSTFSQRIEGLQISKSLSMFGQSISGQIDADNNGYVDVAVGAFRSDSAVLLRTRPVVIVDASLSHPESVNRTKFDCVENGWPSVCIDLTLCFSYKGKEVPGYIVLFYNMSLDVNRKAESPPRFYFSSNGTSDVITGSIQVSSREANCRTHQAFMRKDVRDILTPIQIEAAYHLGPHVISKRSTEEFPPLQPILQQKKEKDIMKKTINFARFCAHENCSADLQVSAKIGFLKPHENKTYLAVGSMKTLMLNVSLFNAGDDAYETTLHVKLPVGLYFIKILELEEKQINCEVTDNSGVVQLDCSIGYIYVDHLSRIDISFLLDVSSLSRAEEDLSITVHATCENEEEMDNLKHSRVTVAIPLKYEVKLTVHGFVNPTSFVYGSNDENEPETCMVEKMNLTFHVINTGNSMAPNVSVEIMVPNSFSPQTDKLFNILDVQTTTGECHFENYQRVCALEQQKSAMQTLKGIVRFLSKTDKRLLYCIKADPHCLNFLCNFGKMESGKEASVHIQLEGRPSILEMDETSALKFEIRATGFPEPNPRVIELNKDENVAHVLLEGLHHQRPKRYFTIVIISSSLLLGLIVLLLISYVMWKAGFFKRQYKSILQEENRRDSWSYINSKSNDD
T1 sequence (P26010 20-798): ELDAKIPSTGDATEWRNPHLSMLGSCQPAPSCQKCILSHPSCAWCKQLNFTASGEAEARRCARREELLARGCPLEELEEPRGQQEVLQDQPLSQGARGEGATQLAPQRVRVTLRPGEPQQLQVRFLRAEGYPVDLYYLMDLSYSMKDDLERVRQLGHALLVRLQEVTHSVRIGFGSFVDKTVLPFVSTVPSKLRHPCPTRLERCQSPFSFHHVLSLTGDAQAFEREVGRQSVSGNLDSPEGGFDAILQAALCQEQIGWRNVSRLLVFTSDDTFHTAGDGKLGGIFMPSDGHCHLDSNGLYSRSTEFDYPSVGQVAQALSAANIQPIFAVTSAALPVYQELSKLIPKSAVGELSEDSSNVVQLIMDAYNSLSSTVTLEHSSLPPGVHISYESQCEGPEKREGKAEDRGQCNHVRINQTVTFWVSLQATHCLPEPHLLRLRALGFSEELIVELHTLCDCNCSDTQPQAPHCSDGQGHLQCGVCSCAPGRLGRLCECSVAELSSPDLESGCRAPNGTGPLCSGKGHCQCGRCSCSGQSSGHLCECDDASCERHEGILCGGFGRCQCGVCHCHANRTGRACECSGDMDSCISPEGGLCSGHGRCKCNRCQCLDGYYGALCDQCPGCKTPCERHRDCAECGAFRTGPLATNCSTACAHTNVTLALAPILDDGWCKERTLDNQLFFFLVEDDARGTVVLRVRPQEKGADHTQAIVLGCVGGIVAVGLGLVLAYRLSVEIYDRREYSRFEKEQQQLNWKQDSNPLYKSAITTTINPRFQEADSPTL
In words: Integrin α4β7-mediated cell adhesion assay (RPM18866 cells on MAdCAM-1). Format: cell-based. The settings on record: for IC50: RPMI-8866 cells adhering to MAdCAM-1; for α4β1/α4β7: selectivity ratio of α4β1 IC50 to α4β7 IC50 in cell adhesion. As to the method: MAdCAM-1 was formulated with TBS buffer to a final concentration of 2 μg/ml, 50 μl of the solution was transferred to a 96-well plate, and the plate was coated with same at 4° C. overnight. The plate was washed with TBS buffer three times, then 150 μl of a blocking solution (TBS buffer containing 1% BSA) was added, and the plate was blocked at 37° C. for 1 h. […] 50 μl of the cell suspension was transferred to a 96-well plate so that the cell density reached 2×10^5 cells/well. Then 1 μl of the compound at different concentrations or DMSO was added and the plate was incubated at 37° C. for 1 h or 2 h. The plate was washed with TBS buffer to remove non-adherent cells. 50 μl of a substrate (4-nitrophenyl-N-acetyl-β-D-glucosaminide) was added and the plate was incubated at 37° C. for 2 h. […] The IC50 value was calculated using GraphPad Prism 6 software.

The target in another series is T2, integrin α4β1 (Homo sapiens, UniProt P05556+P13612).
T2 construct: Jurkat cells were collected, washed twice using DPBS buffer; endogenous in cells; host or cells: Jurkat cells
T2 sequence (P05556 21-798, one chain of several): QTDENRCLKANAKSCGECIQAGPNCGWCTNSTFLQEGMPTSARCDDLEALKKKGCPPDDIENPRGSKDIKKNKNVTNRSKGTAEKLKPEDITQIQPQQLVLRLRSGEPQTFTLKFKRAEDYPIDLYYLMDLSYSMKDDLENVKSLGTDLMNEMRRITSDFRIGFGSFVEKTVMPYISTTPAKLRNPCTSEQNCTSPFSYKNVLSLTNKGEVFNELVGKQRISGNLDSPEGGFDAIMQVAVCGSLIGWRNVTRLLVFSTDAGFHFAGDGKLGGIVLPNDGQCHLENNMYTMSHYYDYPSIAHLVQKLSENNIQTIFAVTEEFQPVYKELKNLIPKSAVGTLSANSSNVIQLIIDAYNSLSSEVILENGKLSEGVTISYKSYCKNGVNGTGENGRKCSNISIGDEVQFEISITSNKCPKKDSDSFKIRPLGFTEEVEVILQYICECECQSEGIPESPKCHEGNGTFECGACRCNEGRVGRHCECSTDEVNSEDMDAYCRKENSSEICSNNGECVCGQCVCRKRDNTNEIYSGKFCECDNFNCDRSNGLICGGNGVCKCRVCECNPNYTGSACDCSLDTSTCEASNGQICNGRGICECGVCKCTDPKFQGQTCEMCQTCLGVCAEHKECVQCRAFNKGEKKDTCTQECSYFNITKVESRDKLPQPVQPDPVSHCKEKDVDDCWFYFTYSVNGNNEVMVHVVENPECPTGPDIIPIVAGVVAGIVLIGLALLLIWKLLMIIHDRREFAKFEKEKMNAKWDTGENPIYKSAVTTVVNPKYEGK
Nature of the series: Integrin α4β1-mediated cell adhesion assay (Jurkat cells on VCAM). Format: cell-based. The settings on record: Jurkat cells adhering to VCAM-1. How it is done: VCAM was formulated into a final concentration of 0.5 μg/ml with a coating buffer, 50 μl of the solution was transferred to a 96-well plate, and the plate was coated with same at 4° C. overnight. The plate was washed with coating buffer three times, then 150 μl of a blocking solution (coating buffer containing 1% BSA) was added, and the plate was blocked at 37° C. for 1 h. […] 50 μl of the cell suspension was transferred to a 96-well plate so that the cell density reached 2×10^5 cells/well. Then 1 μl of the test compound at different concentration or DMSO was added and the plate was incubated at 37° C. for 1 h. The plate was washed with coating buffer to remove non-adherent cells. 50 μl of a substrate (4-nitrophenyl-N-acetyl-β-D-glucosaminide) was added and the plate was incubated at 37° C. for 2 h. […] The […] was calculated using GraphPad Prism 6 software. The results are shown in Table 1. • Coating buffer: DMEM+20 mM HEPES+0.4 mM MnC2 • Action buffer: DMEM+20 mM HEPES+0.1% BSA+0.4 mM MnCl2 • DMEM: dulbecco's modified eagle medium; • HEPES: 2-[4-(2-hydroxyethyl)piperazin-1-yl]ethanesulfonic acid

The nature of series [1]: Pharmacokinetic test in mice. In kind it is in vivo. The settings on record: male BALB/c mice. As to the method: Experimental animals: male BALB/c mice, 20-25 g, 6 mice/compound. Purchased from Chengdu Ddossy Experimental Animals Co., Ltd.
Test design: on the day of the test, 6 BALB/c mice were randomly grouped according to their body weights. The animals were fasted with water available for 12 to 14 h one day before the administration, and were fed 4 h after the administration.
Before and after the administration, 0.06 mL of blood was taken from the orbit of the animals under isoflurane anesthesia and placed in an EDTAK2 centrifuge tube. The blood was centrifuged at 5000 rpm and 4° C. for 10 min to collect the plasma. The blood collection time points for the intravenous group and intragastric administration group were: 0 min, 5 min, 15 min, 30 min, 1 h, 2 h, 4 h, 6 h, 8 h, and 24 h. Before analysis and detection, all samples were stored at −80° C. The samples were analyzed quantitatively by LC-MS/MS.

Molecules are shown by their SMILES.

In turn, `Cc1ccn(C(CC(C)C)C(=O)NC(CC(=O)O)c2cc(-c3c(C)cccc3C)n3ccnc3c2)c(=O)c1` (stereo not shown) [Compound 9] registered an IC50 against integrin α4β7 below 10 nM.

Turning to `Cc1cc(-c2c(C)cccc2C)cc(C(CC(=O)O)NC(=O)C(CC(C)C)n2cc(CCN3CC(CF)C3)cc(F)c2=O)c1F` (stereo not shown) [Compound 13], the IC50 against integrin α4β7 is below 10 nM.

`C#Cc1ncc(C(CC(=O)O)NC(=O)C(CC(C)C)n2cc(CCN3CC(F)C3)cc(F)c2=O)cc1-c1c(C)cccc1C` (stereo not shown) [Compound 14]: at integrin α4β7, the IC50 is below 0.5 nM and the α4β1/α4β7 is given as above 500. In addition, the midpoint of inhibition against integrin α4β1, the IC50, lay at 126 nM.

At integrin α4β7, `C#Cc1cc(-c2c(C)cc(F)cc2C)cc(C(CC(=O)O)NC(=O)C(CC(C)C)n2cc(CCN(C)C)c(C(F)(F)F)cc2=O)c1F` (stereo not shown) [Compound 26-2] returned an IC50 below 0.5 nM.

For `Cc1cc(F)cc(C)c1-c1cc(C(CC(=O)O)NC(=O)C(CC(C)C)n2cc(CCN(C)C)c(C(F)(F)F)cc2=O)cc2c1CCC2` (stereo not shown) [Compound 30-2], at integrin α4β7, the IC50 is below 0.5 nM and the α4β1/α4β7 was 1011.7. The midpoint of inhibition at integrin α4β1, the IC50, lay at 91.1 nM.

In series [1] (intragastrically 10 mg/kg vs intravenously 1 mg/kg), `Cc1cc(-c2c(C)cc(F)cc2C)cc([C@H](CC(=O)O)NC(=O)[C@H](CC(C)C)n2cc(CCN(C)C)c(C(F)(F)F)cc2=O)c1F` [Control compound A, reference compound] came in with an F of 28.2%. The same compound gave a clearance in series [1] (mouse, intravenous, plasma, groups: intravenously 1 mg/kg, intragastrically 10 mg/kg (route for this parameter not stated)) of 56 mL/min/kg. Further, in series [1] (mouse, plasma, oral absorption results, groups: intravenously 1 mg/kg, intragastrically 10 mg/kg (route for this parameter not stated)), the AUC turned out to be 830 ng·h/mL.

`Cc1cc(F)cc(C)c1-c1cc(C(CC(=O)O)NC(=O)C(CC(C)C)n2cc(CCN(C)C)c(C(F)(F)F)cc2=O)cc2nccn12` (stereo not shown) [Trifluoroacetate of compound 20-2]: on integrin α4β7, the IC50 is below 0.5 nM and the α4β1/α4β7 is recorded as above 100. This compound also displayed an IC50 at integrin α4β1 of 36.6 nM.

On integrin α4β7, `Cc1cc(C)c(-c2cc(C(CC(=O)O)NC(=O)C(CC(C)C)n3cc(CCN(C)C)c(C(F)(F)F)cc3=O)cn3ccnc23)c(C)c1` (stereo not shown) [Trifluoroacetate of compound 22-2] gave an IC50 below 10 nM.

Usually IC50 stands for the concentration at which inhibition is half-maximal. A high value points to weaker potency. A word on the clearance: it is the rate of elimination divided by the concentration. Read a low clearance as inefficient removal. The term AUC denotes the area under the concentration-time curve, a measure of exposure. Higher therefore signals high exposure.
